Publication PMC10882719 (Frontiers in Neuroscience, 2024)
Read-outs that look alike come from different tables or passages of the source.

How the values were obtained:
Assay type in all cases: cell-based
168 GPCRs [1] = target: T1, 168 GPCRs (Homo sapiens, UniProt Q03431); details: PTHR1
T1 construct: host or cells: PathHunter cell lines
T1 sequence (Q03431 27-593): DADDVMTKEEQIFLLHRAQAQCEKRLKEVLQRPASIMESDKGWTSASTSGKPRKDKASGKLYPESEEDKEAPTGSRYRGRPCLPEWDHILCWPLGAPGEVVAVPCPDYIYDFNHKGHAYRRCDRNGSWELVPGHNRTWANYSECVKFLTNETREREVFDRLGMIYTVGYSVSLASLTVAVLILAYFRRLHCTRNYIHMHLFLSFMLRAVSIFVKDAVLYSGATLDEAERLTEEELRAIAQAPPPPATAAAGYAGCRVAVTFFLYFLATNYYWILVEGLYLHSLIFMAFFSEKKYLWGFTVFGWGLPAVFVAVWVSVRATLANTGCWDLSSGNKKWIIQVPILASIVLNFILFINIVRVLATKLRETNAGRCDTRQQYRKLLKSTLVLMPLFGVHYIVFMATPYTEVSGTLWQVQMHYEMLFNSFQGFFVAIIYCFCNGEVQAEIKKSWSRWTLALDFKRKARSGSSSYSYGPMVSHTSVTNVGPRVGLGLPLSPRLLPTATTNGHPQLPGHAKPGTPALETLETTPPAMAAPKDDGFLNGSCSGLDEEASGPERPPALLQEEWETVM

168 GPCRs [2] = target: T2, 168 GPCRs (Homo sapiens, UniProt P21462)
T2 construct: host or cells: PathHunter cell lines
T2 sequence (P21462 1-350): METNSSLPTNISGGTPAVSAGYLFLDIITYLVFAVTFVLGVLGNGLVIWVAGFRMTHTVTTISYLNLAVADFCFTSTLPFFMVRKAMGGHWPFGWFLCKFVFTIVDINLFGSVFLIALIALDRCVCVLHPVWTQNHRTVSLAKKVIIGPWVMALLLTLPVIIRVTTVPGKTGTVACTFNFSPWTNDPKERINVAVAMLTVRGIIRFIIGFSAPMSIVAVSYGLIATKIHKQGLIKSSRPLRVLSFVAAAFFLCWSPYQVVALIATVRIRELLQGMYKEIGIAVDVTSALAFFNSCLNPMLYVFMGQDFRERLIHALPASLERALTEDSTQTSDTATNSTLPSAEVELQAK

168 GPCRs [3] = target: T3, 168 GPCRs (Homo sapiens, UniProt P32241); details: VIPR1
T3 construct: host or cells: PathHunter cell lines
T3 sequence (P32241 31-457): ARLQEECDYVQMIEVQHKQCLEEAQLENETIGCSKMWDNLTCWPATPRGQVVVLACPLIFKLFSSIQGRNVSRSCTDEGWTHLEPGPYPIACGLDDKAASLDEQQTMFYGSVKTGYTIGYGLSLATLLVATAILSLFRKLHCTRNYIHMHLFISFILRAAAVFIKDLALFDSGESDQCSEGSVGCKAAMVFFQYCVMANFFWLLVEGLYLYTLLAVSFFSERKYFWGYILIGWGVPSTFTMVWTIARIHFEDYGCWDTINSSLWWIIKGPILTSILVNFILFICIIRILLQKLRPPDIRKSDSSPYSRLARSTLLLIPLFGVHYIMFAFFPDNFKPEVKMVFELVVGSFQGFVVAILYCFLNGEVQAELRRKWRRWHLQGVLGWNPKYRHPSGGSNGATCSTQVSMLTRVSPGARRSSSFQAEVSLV

168 GPCRs [4] = target: T4, 168 GPCRs (Homo sapiens, UniProt P47898); details: HTR5A
T4 construct: host or cells: PathHunter cell lines

168 GPCRs [5] = target: T5, 168 GPCRs (Homo sapiens, UniProt P14416); details: DRD2L
T5 construct: host or cells: PathHunter cell lines

168 GPCRs [6] = target: T6, 168 GPCRs (Homo sapiens, UniProt Q9HB89); details: NMU1R
T6 construct: host or cells: PathHunter cell lines
T6 sequence (Q9HB89 1-426): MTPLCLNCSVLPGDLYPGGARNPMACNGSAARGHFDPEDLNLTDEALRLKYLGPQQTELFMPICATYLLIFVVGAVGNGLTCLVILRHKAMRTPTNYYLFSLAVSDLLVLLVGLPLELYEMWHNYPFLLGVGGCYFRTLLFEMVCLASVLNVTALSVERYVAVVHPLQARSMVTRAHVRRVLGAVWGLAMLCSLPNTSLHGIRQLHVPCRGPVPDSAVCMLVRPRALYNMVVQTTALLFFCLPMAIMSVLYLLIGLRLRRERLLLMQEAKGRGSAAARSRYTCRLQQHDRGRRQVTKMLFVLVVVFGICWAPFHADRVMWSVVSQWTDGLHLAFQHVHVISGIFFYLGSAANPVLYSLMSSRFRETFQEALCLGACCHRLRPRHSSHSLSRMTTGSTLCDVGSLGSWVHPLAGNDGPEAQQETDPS

T5 sequence (P14416 whole entry): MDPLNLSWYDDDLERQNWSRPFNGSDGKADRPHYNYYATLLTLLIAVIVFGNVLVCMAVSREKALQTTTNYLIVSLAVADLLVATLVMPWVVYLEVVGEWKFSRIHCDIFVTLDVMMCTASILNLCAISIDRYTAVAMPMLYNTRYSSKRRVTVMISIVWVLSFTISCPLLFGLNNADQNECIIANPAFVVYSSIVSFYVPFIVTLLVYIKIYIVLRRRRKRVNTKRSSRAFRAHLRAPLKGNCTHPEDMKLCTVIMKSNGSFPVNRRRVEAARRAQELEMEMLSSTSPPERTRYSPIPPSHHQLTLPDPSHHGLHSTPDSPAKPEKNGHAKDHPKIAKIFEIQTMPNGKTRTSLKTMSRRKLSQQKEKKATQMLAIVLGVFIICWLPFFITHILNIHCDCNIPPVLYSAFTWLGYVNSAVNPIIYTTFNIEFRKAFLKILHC
T4 sequence (P47898 whole entry): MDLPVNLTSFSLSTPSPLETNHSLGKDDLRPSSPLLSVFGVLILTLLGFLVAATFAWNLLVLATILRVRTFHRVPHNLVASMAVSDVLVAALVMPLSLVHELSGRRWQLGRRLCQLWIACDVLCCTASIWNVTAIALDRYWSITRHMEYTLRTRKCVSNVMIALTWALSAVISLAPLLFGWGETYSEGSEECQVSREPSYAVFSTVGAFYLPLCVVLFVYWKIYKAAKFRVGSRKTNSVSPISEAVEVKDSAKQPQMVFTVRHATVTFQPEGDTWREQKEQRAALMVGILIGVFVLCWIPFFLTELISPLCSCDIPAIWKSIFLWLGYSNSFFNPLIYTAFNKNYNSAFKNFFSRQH

`CNC(C)Cc1ccc2c(c1)OCO2` (centres unmarked) [MDMA, 3,4-Methylenedioxy methamphetamine, reference compound] was tested, and the “% Agonist Activity” value (168 GPCRs [1]; Conc 1 uM) was 0%, the “% Antagonist Activity” value (168 GPCRs [1]; Conc 1 uM) was -2.1% and the “% Agonist Activity” value (168 GPCRs [1]; Conc 10 uM) was 0.1%. For the same compound, the “% Antagonist Activity” value (168 GPCRs [1]; Conc 10 uM) was 7.7%, the “% Agonist Activity” value (168 GPCRs [2]; FPR1, 1 uM) was 4.4% and the “% Antagonist Activity” value (168 GPCRs [2]; FPR1, 1 uM) was 4.5%. For the same compound, the “% Agonist Activity” value (168 GPCRs [2]; FPR1, 10 uM) was 3.7%, the “% Antagonist Activity” value (168 GPCRs [2]; FPR1, 10 uM) was 2.5% and the “% Agonist Activity” value (168 GPCRs [3]; Conc 1 uM) was -0.8%. The “% Antagonist Activity” value (168 GPCRs [3]; Conc 1 uM) was 5.7%, the “% Agonist Activity” value (168 GPCRs [3]; Conc 10 uM) was -0.6% and the “% Antagonist Activity” value (168 GPCRs [3]; Conc 10 uM) was 5.1%. The “% Antagonist Activity” value (168 GPCRs [4]; 1 uM) was -16.4%, the “% Antagonist Activity” value (168 GPCRs [4]; 10 uM) was -6.4% and the “% Agonist Activity” value (168 GPCRs [5]; 1 uM) was 3.3%. For the same compound, the “% Antagonist Activity” value (168 GPCRs [5]; 1 uM) was 4.8%, the “% Agonist Activity” value (168 GPCRs [5]; 10 uM) was 2.6% and the “% Antagonist Activity” value (168 GPCRs [5]; 10 uM) was 11.7%. For the same compound, the “% Agonist Activity” value (168 GPCRs [6]; 1 uM) was 0%, the “% Antagonist Activity” value (168 GPCRs [6]; 1 uM) was -3.7% and the “% Agonist Activity” value (168 GPCRs [6]; 10 uM) was -0.1%. The “% Antagonist Activity” value (168 GPCRs [6]; 10 uM) was 6.8%.
`CNC(C)C(=O)c1ccc2c(c1)OCO2` (centres unmarked) [methylone] was tested, and the “% Agonist Activity” value (168 GPCRs [1]; Conc 1 uM) was 0%, the “% Antagonist Activity” value (168 GPCRs [1]; Conc 1 uM) was 2.2% and the “% Agonist Activity” value (168 GPCRs [1]; Conc 10 uM) was 0.1%. The “% Antagonist Activity” value (168 GPCRs [1]; Conc 10 uM) was -8.3%, the “% Agonist Activity” value (168 GPCRs [2]; FPR1, 1 uM) was 2.2% and the “% Antagonist Activity” value (168 GPCRs [2]; FPR1, 1 uM) was -4.9%. For the same compound, the “% Agonist Activity” value (168 GPCRs [2]; FPR1, 10 uM) was 0.5%, the “% Antagonist Activity” value (168 GPCRs [2]; FPR1, 10 uM) was -11.4% and the “% Agonist Activity” value (168 GPCRs [3]; Conc 1 uM) was 0.3%. For the same compound, the “% Antagonist Activity” value (168 GPCRs [3]; Conc 1 uM) was -0.7%, the “% Agonist Activity” value (168 GPCRs [3]; Conc 10 uM) was 0.6% and the “% Antagonist Activity” value (168 GPCRs [3]; Conc 10 uM) was 5.3%. For the same compound, the “% Antagonist Activity” value (168 GPCRs [4]; 1 uM) was 9.8%, the “% Antagonist Activity” value (168 GPCRs [4]; 10 uM) was 1.6% and the “% Agonist Activity” value (168 GPCRs [5]; 1 uM) was 0.1%. The “% Antagonist Activity” value (168 GPCRs [5]; 1 uM) was 1.1%, the “% Agonist Activity” value (168 GPCRs [5]; 10 uM) was -0.7% and the “% Antagonist Activity” value (168 GPCRs [5]; 10 uM) was 0.1%. The “% Agonist Activity” value (168 GPCRs [6]; 1 uM) was 1.3%, the “% Antagonist Activity” value (168 GPCRs [6]; 1 uM) was -6.7% and the “% Agonist Activity” value (168 GPCRs [6]; 10 uM) was 2%. The “% Antagonist Activity” value (168 GPCRs [6]; 10 uM) was -9.3%.
